Experimental data published in patent US9796671B2, “Aurora kinase inhibitors” (REGENTS OF THE UNIVERSITY OF MINNESOTA, priority 2012, dated 2017).

System: HCT116 cells
Assay: Anchorage-independent growth (soft agar colony formation)
Format: cell-based
Conditions: 0.5 μM
Method: FIGS. 3A and 3B. Compounds 1-8 suppress the anchorage-independent growth of HCT116 cells. The asterisk indicates a significant (* p<0.05, ** p<0.01) decrease in colony formation in cells treated with each compound compared with the DMSO treated control group. Two concentrations of each compound, 0.5 μM and 5 μM were tested. […] Compounds 2 and 4 had no effect.
Tumor cells are suspended in basal medium Eagle (BME) medium and added to 0.6% agar, with different concentrations of Compound 1 in a base layer and a top layer of 0.3% agar. The cultures are maintained at 37° C. in a 5% CO2 incubator for 1 to 2 weeks and then colonies are counted under a microscope using the Image-Pro Plus software (v.4) program (Media Cybernetics, Silver Spring, Md.).

O=C(/C=C/c1ccc2c(c1)OCO2)/C=C1/C(=O)Nc2ccc(Cl)cc21 [Compound 2]
anchorage-independent growth of HCT116 cells (colony formation): no effect

O=C(/C=C/c1ccc2c(c1)OCO2)/C=C1/C(=O)Nc2cccc(Cl)c21 [Compound 4]
anchorage-independent growth of HCT116 cells (colony formation): no effect

COc1cc(/C=C/C(=O)/C=C2/C(=O)Nc3ccccc32)cc(OC)c1OC [Compound 5]
anchorage-independent growth of HCT116 cells (colony formation): best efficiency

O=C(/C=C/c1ccc2c(c1)OCO2)/C=C1/C(=O)Nc2ccc(F)cc21 [Compound 6]
anchorage-independent growth of HCT116 cells (colony formation): best efficiency

COc1cc(/C=C/C(=O)/C=C2/C(=O)Nc3ccccc32)ccc1O [Compound 8]
anchorage-independent growth of HCT116 cells (colony formation): best efficiency
